In patent US7960402B2, “Carbamoyl-substituted spiro derivative” (Banyu Pharmaceutical Co., Ltd., priority 2004, dated 2011):

Molecular target: T1, human histamine H3 receptor (Homo sapiens, UniProt Q9Y5N1)
T1 construct: expressed in transfected cells; host or cells: HEK293 and CHO-K1
Test: Test for Inhibition of Bonding of Histamine Analog
Assay type: binding
Conditions: for IC50: membrane specimen from histamine H3 receptor-expressed cells, [3H]N-α-methylhistamine, 25° C., 2 hours, read-out: 50% inhibition concentration (IC50 value) of the test compound to a specific N-alpha-methylhistamine bond; for inhibition of the bond of N-alpha-methylhistamine (histamine analog) to a histamine H3 receptor: summary in words of the IC50 results
Excerpt: A cDNA sequence coding for human histamine H3 receptor [refer to WO 00/39164] was cloned to an expression vector pCR2.1, pEF1× (manufactured by Invitrogen) and pCI-neo (manufactured by Promega). The resulting expression vector was transfected to host cells HEK293 and CHO-K1 (American Type Culture Collection) by a cationic lipid method [refer to Proceedings of the National Academy of Sciences, the United States of America, volume 84, page 7413 (1987)] to give histamine H3 receptor-expressed cells.
A membrane specimen prepared from the cells where histamine H3 receptor was expressed was incubated at 25° C. for 2 hours in an assay buffer (50 mM Tris buffer, pH 7.4) together with a test compound (the compound of Example 1) and 20,000 cpm of [3H]N-α-methylhistamine (manufactured by NEN) and then filtered using a glass filter GF/C. After washing with a 50 mM Tris buffer of pH 7.4, radiation activity on the glass filter was determined. Non-specific bond was measured in the presence of a 10 μM thioperamide (manufactured by Sigam) to determine a 50% inhibition concentration (IC50 value) of the test compound to a specific N-alpha-methylhistamine bond [refer to Molecular Pharmacology, volume 55, page 1101 (1999)].

T1 sequence (Q9Y5N1 whole entry): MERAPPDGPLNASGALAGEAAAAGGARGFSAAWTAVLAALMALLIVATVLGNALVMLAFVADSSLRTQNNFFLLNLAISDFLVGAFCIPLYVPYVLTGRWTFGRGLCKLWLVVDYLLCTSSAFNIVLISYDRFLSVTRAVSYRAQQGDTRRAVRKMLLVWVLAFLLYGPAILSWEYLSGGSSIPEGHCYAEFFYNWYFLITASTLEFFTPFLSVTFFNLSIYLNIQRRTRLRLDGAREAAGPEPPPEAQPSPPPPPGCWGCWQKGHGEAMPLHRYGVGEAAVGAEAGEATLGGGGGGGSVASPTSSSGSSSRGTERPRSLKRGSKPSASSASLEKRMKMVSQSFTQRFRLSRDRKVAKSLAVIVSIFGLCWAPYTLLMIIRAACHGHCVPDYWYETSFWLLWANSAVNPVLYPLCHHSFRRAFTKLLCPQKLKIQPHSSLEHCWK

SMILES | IC50 | inhibition of the bond of N-alpha-methylhistamine (histamine analog) to a histamine H3 receptor
CN(CCN1CCCCC1)C(=O)[C@H]1CC[C@@]2(CC1)OC(=O)c1cc(F)ccc12.Cl [Example 10, trans-5′-fluoro-3′-oxo-N-methyl-N-(2-piperidin-1-ylethyl)-spiro[cyclohexane-1,1′-(3′H)-isobenzofuran]-4-carboxamide hydrochloride] | 4 nM | strongly inhibited
CN(CCN1CCCCC1)C(=O)[C@H]1CC[C@@]2(CC1)OC(=O)c1cc(-c3ccccn3)ccc12 [Example 58, trans-5′-(Pyridin-2-yl)-3′-oxo-N-methyl-N-(2-piperidin-1-ylethyl)-spiro[cyclohexane-1,1′-(3′H)-isobenzofuran]-4-carboxamide] | 0.08 nM | strongly inhibited
CN(CCN1CCCCC1)C(=O)[C@H]1CC[C@@]2(CC1)OC(=O)c1cc(Oc3ccccn3)ccc12 [Example 68, trans-5′-(Pyridin-2-yloxy)-3′-oxo-N-methyl-N-(2-piperidin-1-ylethyl)-spiro[cyclohexane-1,1′-(3′H)-iso-benzofuran]-4-carboxamide] | 0.67 nM | strongly inhibited
